Results: article PMC5218480 (PLoS ONE, 2017)

System: MV-4-11 cells
Assay: Gene expression microarray analysis (Affymetrix PrimeView) and GSEA
Assay type: cell-based, human
Set-up: RFU PODN (11730768_x_at) / Fold change /veh PODN (11730768_x_at) / RFU LINC00158 (11744669_a_at) / Fold change /veh LINC00158 (11744669_a_at) / RFU DUSP10 (11751237_a_at) / Fold change /veh DUSP10 (11751237_a_at) / RFU ID3 (11757404_x_at) / Fold change /veh ID3 (11757404_x_at) / RFU PLEKHG5 (11737974_s_at) / Fold change /veh PLEKHG5 (11737974_s_at) / RFU LRRC4B (11730491_at) / Fold change /veh LRRC4B (11730491_at) / RFU GIMAP4 (11747438_a_at) / Fold change /veh GIMAP4 (11747438_a_at) / RFU KRT8 (11758183_x_at) / Fold change /veh KRT8 (11758183_x_at) / RFU CNN1 (11734310_a_at) / Fold change /veh CNN1 (11734310_a_at) / RFU VPS37D (11726825_at) / Fold change /veh VPS37D (11726825_at) / RFU C10orf10 (11716522_x_at) / Fold change /veh C10orf10 (11716522_x_at) / RFU KIR2DL2 /// KIR2DL4 /// KIR2DL5A /// KIR2DL5B /// KIR2DS1 /// KIR2DS2 /// KIR2DS3 /// KIR2DS4 /// KIR3DL3 /// KIR3DL3 /// KIR3DS1 (11738374_at) / Fold change /veh KIR2DL2 /// KIR2DL4 /// KIR2DL5A /// KIR2DL5B /// KIR2DS1 /// KIR2DS2 /// KIR2DS3 /// KIR2DS4 /// KIR3DL3 /// KIR3DL3 /// KIR3DS1 (11738374_at) / RFU C1QL1 (11718748_at) / Fold change /veh C1QL1 (11718748_at) / RFU TMPRSS4 (11747572_a_at) / Fold change /veh TMPRSS4 (11747572_a_at) / RFU HAMP (11756126_x_at) / Fold change /veh HAMP (11756126_x_at) / RFU RNFT2 (11725882_a_at) / Fold change /veh RNFT2 (11725882_a_at) / RFU NR4A2 (11747474_a_at) / Fold change /veh NR4A2 (11747474_a_at) / RFU ABCC12 (11746883_a_at) / Fold change /veh ABCC12 (11746883_a_at) / RFU TMEM136 (11760407_x_at) / Fold change /veh TMEM136 (11760407_x_at) / RFU CLDN22 /// WWC2 (11732394_at) / Fold change /veh CLDN22 /// WWC2 (11732394_at) / RFU HLA-DPB1 (11760878_x_at) / Fold change /veh HLA-DPB1 (11760878_x_at) / RFU SPINT1 (11716480_a_at) / Fold change /veh SPINT1 (11716480_a_at) / RFU GAP43 (11754022_s_at) / Fold change /veh GAP43 (11754022_s_at) / RFU A4GNT (11735810_at) / Fold change /veh A4GNT (11735810_at) / RFU PRB3 (11715151_x_at) / Fold change /veh PRB3 (11715151_x_at) / RFU TUBB4B (11761932_at) / Fold change /veh TUBB4B (11761932_at) / RFU CAPN14 (11732068_a_at) / Fold change /veh CAPN14 (11732068_a_at) / RFU TMCC2 (11721928_a_at) / Fold change /veh TMCC2 (11721928_a_at) / RFU IRGQ (11745062_a_at) / Fold change /veh IRGQ (11745062_a_at) / RFU FAM174B (11720279_a_at) / Fold change /veh FAM174B (11720279_a_at) / RFU TMPRSS4 (11748680_a_at) / Fold change /veh TMPRSS4 (11748680_a_at) / RFU FAM212B (11763350_a_at) / Fold change /veh FAM212B (11763350_a_at) / RFU PLEKHG5 (11743358_a_at) / Fold change /veh PLEKHG5 (11743358_a_at) / RFU ZSCAN30 (11745921_a_at) / Fold change /veh ZSCAN30 (11745921_a_at) / RFU CMKLR1 (11741424_a_at) / Fold change /veh CMKLR1 (11741424_a_at) / RFU LOC101060620 /// MAPK8IP1 (11723275_at) / Fold change /veh LOC101060620 /// MAPK8IP1 (11723275_at) / RFU SPTSSB (11747773_x_at) / Fold change /veh SPTSSB (11747773_x_at) / RFU PRSS12 (11739890_at) / Fold change /veh PRSS12 (11739890_at) / RFU BIN1 (11741810_x_at) / Fold change /veh BIN1 (11741810_x_at) / RFU WNT11 (11732464_a_at) / Fold change /veh WNT11 (11732464_a_at) / RFU C10orf10 (11716521_a_at) / Fold change /veh C10orf10 (11716521_a_at) / RFU C5orf56 (11738089_at) / Fold change /veh C5orf56 (11738089_at) / RFU CYB561 (11721691_x_at) / Fold change /veh CYB561 (11721691_x_at) / RFU ANKRD19P (11752326_a_at) / Fold change /veh ANKRD19P (11752326_a_at) / RFU OR2T12 /// OR2T33 /// OR2T8 (11738714_s_at) / Fold change /veh OR2T12 /// OR2T33 /// OR2T8 (11738714_s_at) / RFU VCAN (11748164_a_at) / Fold change /veh VCAN (11748164_a_at) / RFU JSRP1 (11732532_at) / Fold change /veh JSRP1 (11732532_at) / RFU KRTAP10-11 (11738290_x_at) / Fold change /veh KRTAP10-11 (11738290_x_at) / RFU MYO3A (11730013_a_at) / Fold change /veh MYO3A (11730013_a_at) / RFU EBF3 (11725865_a_at) / Fold change /veh EBF3 (11725865_a_at) / RFU CAMK2N1 (11719241_x_at) / Fold change /veh CAMK2N1 (11719241_x_at) / RFU C5orf56 (11738088_a_at) / Fold change /veh C5orf56 (11738088_a_at) / RFU OLFML3 (11715873_a_at) / Fold change /veh OLFML3 (11715873_a_at) / RFU LOC100653217 /// NTM (11731650_a_at) / Fold change /veh LOC100653217 /// NTM (11731650_a_at) / RFU MAPK11 (11762145_a_at) / Fold change /veh MAPK11 (11762145_a_at) / RFU FIZ1 (11724087_x_at) / Fold change /veh FIZ1 (11724087_x_at) / RFU OASL (11726364_x_at) / Fold change /veh OASL (11726364_x_at) / RFU SOX15 (11748057_x_at) / Fold change /veh SOX15 (11748057_x_at) / RFU CD79A (11719716_a_at) / Fold change /veh CD79A (11719716_a_at) / RFU HIST1H1D (11736915_at) / Fold change /veh HIST1H1D (11736915_at) / RFU CASKIN2 (11723855_a_at) / Fold change /veh CASKIN2 (11723855_a_at) / RFU LOC730098 (11760151_x_at) / Fold change /veh LOC730098 (11760151_x_at) / RFU OR4N2 (11742367_at) / Fold change /veh OR4N2 (11742367_at) / RFU PRRT2 (11749266_a_at) / Fold change /veh PRRT2 (11749266_a_at) / RFU SNX32 (11753110_a_at) / Fold change /veh SNX32 (11753110_a_at) / RFU CDHR5 (11726645_a_at) / Fold change /veh CDHR5 (11726645_a_at) / RFU RCAN1 (11760418_a_at) / Fold change /veh RCAN1 (11760418_a_at) / RFU FAM167A (11723789_a_at) / Fold change /veh FAM167A (11723789_a_at) / RFU FAM26E (11764081_at) / Fold change /veh FAM26E (11764081_at) / RFU ISYNA1 (11749810_s_at) / Fold change /veh ISYNA1 (11749810_s_at) / RFU ACY1 (11761880_at) / Fold change /veh ACY1 (11761880_at) / RFU 11764098_at / Fold change /veh 11764098_at / RFU SAMD14 (11745864_x_at) / Fold change /veh SAMD14 (11745864_x_at) / RFU NPB (11741838_a_at) / Fold change /veh NPB (11741838_a_at) / RFU TMPRSS6 (11731388_a_at) / Fold change /veh TMPRSS6 (11731388_a_at) / RFU KRTAP10-2 (11738614_at) / Fold change /veh KRTAP10-2 (11738614_at) / RFU ARHGAP8 /// PRR5-ARHGAP8 (11727945_x_at) / Fold change /veh ARHGAP8 /// PRR5-ARHGAP8 (11727945_x_at) / RFU KRTAP5-7 /// NADSYN1 (11734609_at) / Fold change /veh KRTAP5-7 /// NADSYN1 (11734609_at) / RFU RASL12 (11751679_a_at) / Fold change /veh RASL12 (11751679_a_at) / RFU CDKN2B (11736163_a_at) / Fold change /veh CDKN2B (11736163_a_at) / RFU PRF1 (11729649_at) / Fold change /veh PRF1 (11729649_at) / RFU, ZNF638 /// ZNF638-IT1 / Fold change vs veh, ZNF638 /// ZNF638-IT1 / RFU, PANK3 / Fold change vs veh, PANK3 / RFU, SH3YL1 / Fold change vs veh, SH3YL1 / RFU, ZEB2 / Fold change vs veh, ZEB2 / RFU, NRIP1 / Fold change vs veh, NRIP1 / RFU, PTTG1IP / Fold change vs veh, PTTG1IP / RFU, CAPN2 / Fold change vs veh, CAPN2 / RFU, MED14 / Fold change vs veh, MED14 / RFU, SNORA58 / Fold change vs veh, SNORA58 / RFU, C1orf63 / Fold change vs veh, C1orf63 / RFU, LRRFIP1 / Fold change vs veh, LRRFIP1 / RFU, NDUFAF7 / Fold change vs veh, NDUFAF7 / RFU, SLC12A2 / Fold change vs veh, SLC12A2 / RFU, IBTK / Fold change vs veh, IBTK / RFU, ESF1 / Fold change vs veh, ESF1 / Fold change vs veh, TMEM50B / RFU, TAOK1 / Fold change vs veh, TAOK1 / RFU, ACBD3 / Fold change vs veh, ACBD3 / RFU, TMA16 / Fold change vs veh, TMA16 / RFU, RWDD3 / Fold change vs veh, RWDD3 / RFU, BCAT1 / Fold change vs veh, BCAT1 / RFU, EDEM3 / Fold change vs veh, EDEM3 / RFU, TMEM33 / Fold change vs veh, TMEM33 / RFU, WDR75 / Fold change vs veh, WDR75 / RFU, AHCTF1 / Fold change vs veh, AHCTF1 / RFU, TFRC / Fold change vs veh, TFRC / RFU, ZDHHC17 / Fold change vs veh, ZDHHC17 / RFU, NOM1 / Fold change vs veh, NOM1 / RFU, ARL8B / Fold change vs veh, ARL8B / RFU, ZBTB11 / Fold change vs veh, ZBTB11 / RFU, TAMM41 / Fold change vs veh, TAMM41 / RFU, KIAA1704 /// LOC100996395 / Fold change vs veh, KIAA1704 /// LOC100996395 / RFU, ING1 / Fold change vs veh, ING1 / RFU, TRMT61B / Fold change vs veh, TRMT61B / RFU, FUBP3 / Fold change vs veh, FUBP3 / RFU, TP53 / Fold change vs veh, TP53 / RFU, TNKS2 / Fold change vs veh, TNKS2 / RFU, ZFP14 / Fold change vs veh, ZFP14 / RFU, ACTR2 / Fold change vs veh, ACTR2 / RFU, PPP3R1 / Fold change vs veh, PPP3R1 / RFU, PIK3R1 / Fold change vs veh, PIK3R1 / RFU, HNRNPA1 / Fold change vs veh, HNRNPA1 / RFU, RNF170 / Fold change vs veh, RNF170 / RFU, ZNF28 / Fold change vs veh, ZNF28 / RFU, RNGTT / Fold change vs veh, RNGTT / RFU, OGT / Fold change vs veh, OGT / RFU, BRD1 / Fold change vs veh, BRD1 / RFU, MARS / Fold change vs veh, MARS / RFU, ZNF655 / Fold change vs veh, ZNF655 / RFU, FAHD1 / Fold change vs veh, FAHD1 / RFU, BDP1 / Fold change vs veh, BDP1 / RFU, LRRCC1 / Fold change vs veh, LRRCC1 / RFU, ARID1A / Fold change vs veh, ARID1A / RFU, ZNF146 / Fold change vs veh, ZNF146 / RFU, ZNF330 / Fold change vs veh, ZNF330 / RFU, GPN3 / Fold change vs veh, GPN3 / RFU, C9orf123 / Fold change vs veh, C9orf123 / RFU, N4BP2L2 / Fold change vs veh, N4BP2L2 / RFU, ARFIP1 / Fold change vs veh, ARFIP1 / RFU, FAM179B / Fold change vs veh, FAM179B / RFU, BCL10 / Fold change vs veh, BCL10 / RFU, UHRF1BP1L / Fold change vs veh, UHRF1BP1L / RFU, BET1 / Fold change vs veh, BET1 / RFU, CNOT2 / Fold change vs veh, CNOT2 / RFU, ZNF268 / Fold change vs veh, ZNF268 / Fold change vs veh, ZNF507 / RFU, DGCR2 / Fold change vs veh, DGCR2 / RFU, WDSUB1 / Fold change vs veh, WDSUB1 / Fold change vs veh, HSP90B1 /// MIR3652 / RFU, ADSS / Fold change vs veh, ADSS / RFU, GK / Fold change vs veh, GK / RFU, ZNF148 / Fold change vs veh, ZNF148 / RFU, TAF9 / Fold change vs veh, TAF9 / RFU, SLC1A5 / Fold change vs veh, SLC1A5 / RFU, SLMO2 / Fold change vs veh, SLMO2 / RFU, ABCC4 / Fold change vs veh, ABCC4 / RFU, LOC101060439 /// RAP1B / Fold change vs veh, LOC101060439 /// RAP1B / RFU, RFX7 / Fold change vs veh, RFX7 / RFU, GTPBP10 / Fold change vs veh, GTPBP10 / RFU, CNEP1R1 / Fold change vs veh, CNEP1R1 / RFU, BIVM-ERCC5 /// ERCC5 / Fold change vs veh, BIVM-ERCC5 /// ERCC5 / RFU, ILF3 / Fold change vs veh, ILF3 / RFU 11762660_at / Fold change /veh 11762660_at / RFU VCAN (11757783_s_at) / Fold change /veh VCAN (11757783_s_at) / RFU DDX43 (11728927_at) / Fold change /veh DDX43 (11728927_at) / RFU KRT8 (11758188_x_at) / Fold change /veh KRT8 (11758188_x_at) / RFU NKD1 (11759106_at) / Fold change /veh NKD1 (11759106_at) / RFU SRD5A1 (11742802_a_at) / Fold change /veh SRD5A1 (11742802_a_at) / RFU TPSAB1 /// TPSB2 (11721975_s_at) / Fold change /veh TPSAB1 /// TPSB2 (11721975_s_at) / RFU GSTM3 (11746129_a_at) / Fold change /veh GSTM3 (11746129_a_at) / RFU IL23R (11737362_x_at) / Fold change /veh IL23R (11737362_x_at) / RFU TMEM51 (11727254_a_at) / Fold change /veh TMEM51 (11727254_a_at) / RFU PIWIL2 (11732686_x_at) / Fold change /veh PIWIL2 (11732686_x_at) / RFU ORM1 (11744905_x_at) / Fold change /veh ORM1 (11744905_x_at) / RFU CCDC152 (11743942_at) / Fold change /veh CCDC152 (11743942_at) / RFU ECM1 (11717891_a_at) / Fold change /veh ECM1 (11717891_a_at) / RFU IL23R (11748794_a_at) / Fold change /veh IL23R (11748794_a_at) / RFU TNFAIP8L3 (11732012_x_at) / Fold change /veh TNFAIP8L3 (11732012_x_at) / RFU MBOAT4 (11741988_at) / Fold change /veh MBOAT4 (11741988_at) / RFU 11764193_at / Fold change /veh 11764193_at / RFU TMEM53 (11763286_at) / Fold change /veh TMEM53 (11763286_at) / RFU MAGEB2 (11727129_at) / Fold change /veh MAGEB2 (11727129_at) / RFU TMEM200A (11744735_a_at) / Fold change /veh TMEM200A (11744735_a_at) / RFU CCDC152 (11751479_a_at) / Fold change /veh CCDC152 (11751479_a_at) / RFU FAM211A (11726209_a_at) / Fold change /veh FAM211A (11726209_a_at) / RFU RGS16 (11746705_a_at) / Fold change /veh RGS16 (11746705_a_at) / RFU VCAN (11755009_s_at) / Fold change /veh VCAN (11755009_s_at) / RFU RHOB (11743442_s_at) / Fold change /veh RHOB (11743442_s_at) / RFU RGS16 (11720943_a_at) / Fold change /veh RGS16 (11720943_a_at) / RFU RGS16 (11720944_at) / Fold change /veh RGS16 (11720944_at) / RFU, VPS4B / Fold change vs veh, VPS4B / RFU, CREB1 / Fold change vs veh, CREB1 / RFU, DNAJC13 / Fold change vs veh, DNAJC13 / RFU, GNAQ / Fold change vs veh, GNAQ / RFU, CDK5R1 / Fold change vs veh, CDK5R1 / RFU, ZRANB3 / Fold change vs veh, ZRANB3 / RFU, CUL4A / Fold change vs veh, CUL4A / RFU, CCNY / Fold change vs veh, CCNY / RFU, UFL1 / Fold change vs veh, UFL1 / RFU, COG3 / Fold change vs veh, COG3 / RFU, DIAPH2 / Fold change vs veh, DIAPH2 / RFU, SKA2 / Fold change vs veh, SKA2 / RFU, AFF3 / Fold change vs veh, AFF3 / RFU, LMF1 / Fold change vs veh, LMF1 / RFU, IPO11 / Fold change vs veh, IPO11 / RFU, DFFB / Fold change vs veh, DFFB / RFU, FOXP1 / Fold change vs veh, FOXP1 / RFU, CARD8 / Fold change vs veh, CARD8 / RFU, STRN3 / Fold change vs veh, STRN3 / RFU, ADK / Fold change vs veh, ADK / RFU, RASSF2 / Fold change vs veh, RASSF2 / RFU, WIPF1 / Fold change vs veh, WIPF1 / RFU, LARP1B / Fold change vs veh, LARP1B / RFU, RASA1 / Fold change vs veh, RASA1 / RFU, RB1 / Fold change vs veh, RB1 / RFU, PPFIA1 / Fold change vs veh, PPFIA1 / RFU, MAT2A / Fold change vs veh, MAT2A / RFU, CCT5 / Fold change vs veh, CCT5 / RFU, WDR92 / Fold change vs veh, WDR92 / RFU, CUX1 / Fold change vs veh, CUX1 / RFU, TTC7A / Fold change vs veh, TTC7A / RFU, TMEM135 / Fold change vs veh, TMEM135 / RFU, DEPTOR / Fold change vs veh, DEPTOR / RFU, CPM / Fold change vs veh, CPM / RFU, DNAJB6 / Fold change vs veh, DNAJB6 / RFU, CACNA2D3 / Fold change vs veh, CACNA2D3 / RFU, DTX4 / Fold change vs veh, DTX4 / RFU, TFCP2 / Fold change vs veh, TFCP2 / RFU, GMCL1 /// GMCL1P1 / Fold change vs veh, GMCL1 /// GMCL1P1 / RFU, AEBP2 / Fold change vs veh, AEBP2 / RFU, SNHG1 /// SNORD22 /// SNORD25 /// SNORD26 /// SNORD27 /// SNORD28 /// SNORD29 /// SNORD31 / Fold change vs veh, SNHG1 /// SNORD22 /// SNORD25 /// SNORD26 /// SNORD27 /// SNORD28 /// SNORD29 /// SNORD31 / Fold change (Aza/veh), C12orf56 (ProbeSet 11735607_a_at) / Fold change (ACY-1035/veh), C12orf56 (ProbeSet 11735607_a_at) / Fold change (Aza/veh), FGFR1OP (ProbeSet 11751329_s_at) / Fold change (ACY-1035/veh), FGFR1OP (ProbeSet 11751329_s_at) / Fold change (Aza/veh), VPS36 (ProbeSet 11739960_a_at) / Fold change (ACY-1035/veh), VPS36 (ProbeSet 11739960_a_at) / RFU SYPL1 (11715823_x_at) / Fold change /veh SYPL1 (11715823_x_at) / RFU IGFBP7 (11715501_s_at) / Fold change /veh IGFBP7 (11715501_s_at) / RFU REEP3 (11722064_at) / Fold change /veh REEP3 (11722064_at) / RFU IGLL1 (11728026_x_at) / Fold change /veh IGLL1 (11728026_x_at): dose or concentration left out as unconfirmed
Conditions: MV-4-11 cells, 48 hours

SMILES: Nc1ncn([C@@H]2O[C@H](CO)[C@@H](O)[C@H]2O)c(=O)n1 [azacitidine]
- RFU TMPRSS6 (11731388_a_at): 68.82 RFU
